The record followed here is US20070122437A1, “Novel insecticide composition and use thereof particularly for impregnating mosquito nets, fly screens and the like” (priority 2004, published 2007).

Holding throughout (type): in vivo
Test [1] relates to Aedes aegypti females, strain sensitive to pyrethroids. Description: Irritability test (time for first take-off in cone on impregnated paper), strain sensitive to pyrethroids. From the text:
(§1) In order to evaluate the irritant effect or irritability, an Ae. aegypti female which is not gorged and is from 2 to 5 days old is introduced into a polyethylene cone the bottom of which is an impregnated paper. After an adaptation time of 60 seconds, the time for first take-off is noted and recorded as time for First Take-off (or FT). After 256 seconds, if the mosquito has not taken off, the test is stopped. For each test, the flying activity of 50 females is noted, and each test is repeated three times. The females are sorted into classes according to their time for first take-off and the cumulative first take-off frequencies are used in order to calculate the time at which 50% of the females have taken off (FT50). All the tests take place under controlled conditions, at 27° C.±2 and 80% ±10 humidity.
(§2) The irritability tests were carried out (a female in a cone in contact with the impregnated surface, reading of the time for first take-off after the Ist minute has passed, 50 females per test) according to the following protocol.
Ae. aegypti females which have not fed on blood, from 2 to 5 days old, were introduced individually into plastic cones applied to treated filter papers. After an adaptation time of exactly 60 seconds, the time which has passed between the first landing and the next take-off was defined as being <<the first take-off time>> (FT). The observation was not extended for the rare mosquitoes which had not taken off after 256 seconds. For each test, 50 mosquitoes were tested individually. A simple computer program using the internal clock of a laptop computer was used in order to carry out this test and in order to analyze the results grouping the mosquitoes into classes for time of first take-off. The time at which 50% of the mosquitoes have left the treated surface (median first take-off time, FT50) and its confidence interval at 95% were then determined using the log-probit method.

Test [2] deals with Aedes aegypti females, a strain resistant to pyrethroids (homozygous for the kdr gene). The test is described as follows: WHO tube test on impregnated paper (KD effect and 24 h mortality), strain resistant to pyrethroids. From the text: Determination of the LC100 usually takes place according to the standard tube test protocol defined by the World Health Organization (WHO) (6). Briefly, the tube test is composed of an observation tube and an exposure tube (the two tubes are removable) separated by a slide unit equipped with a partition making it possible to obstruct or re-establish the passage between the two tubes. The other end of each tube is sealed by a ventilation plug equipped with a mesh screen. Each tube is lined, for the purposes of the tests, with Whatman paper (standard qualitative filter paper ref 1002 917 or else Whatman N°1) held on the edges by two metal rings. The exposure tube receives paper impregnated with insecticide (impregnated surface on the inside) while the observation tube receives non-impregnated (neutral) paper. In order to impregnate the papers in a homogeneous fashion and to the saturation limit, 2 ml of solution constituted by 0.66 ml of silicone and 1.34 ml of acetone solution are used. For an impregnation at X mg/m^2, the quantity of active ingredient to be deposited on the paper (12 cm×15 cm i.e. 0.018 m^2) is 0.018.X mg of active ingredient (quantity to be adjusted as a function of the degree of purity of the technical product). This quantity of active ingredient is then diluted in 1.34 ml of acetone solution to which 0.66 ml of silicone is then added. The paper dries at ambient temperature, in the dark for 12 hours before the start of the test. […]
The tarsal contact tests were implemented using filter paper (standard qualitative filter paper ref 1002 917 or else Whatman N° 1) impregnated with technical quality products according to the recommendations of the World Health Organization (WHO, 6). […] The mortality and the KD effect resulting from the tarsal contacts with treated filter paper were measured using the adult mosquito test tubes of the WHO. […] For the purpose of comparison with pyrethroids, which are rapid action insecticides, the number of mosquitoes knocked down at the bottom of the tubes was counted at regular intervals of 10 min. […]

The test system of test [3] is Aedes aegypti females, strain sensitive to pyrethroids. The test is described as follows: WHO tube test on impregnated paper (KD effect and 24 h mortality), strain sensitive to pyrethroids. The source says: Determination of the LC100 usually takes place according to the standard tube test protocol defined by the World Health Organization (WHO) (6). Briefly, the tube test is composed of an observation tube and an exposure tube (the two tubes are removable) separated by a slide unit equipped with a partition making it possible to obstruct or re-establish the passage between the two tubes. The other end of each tube is sealed by a ventilation plug equipped with a mesh screen. Each tube is lined, for the purposes of the tests, with Whatman paper (standard qualitative filter paper ref 1002 917 or else Whatman N°1) held on the edges by two metal rings. The exposure tube receives paper impregnated with insecticide (impregnated surface on the inside) while the observation tube receives non-impregnated (neutral) paper. In order to impregnate the papers in a homogeneous fashion and to the saturation limit, 2 ml of solution constituted by 0.66 ml of silicone and 1.34 ml of acetone solution are used. For an impregnation at X mg/m^2, the quantity of active ingredient to be deposited on the paper (12 cm×15 cm i.e. 0.018 m^2) is 0.018.X mg of active ingredient (quantity to be adjusted as a function of the degree of purity of the technical product). This quantity of active ingredient is then diluted in 1.34 ml of acetone solution to which 0.66 ml of silicone is then added. The paper dries at ambient temperature, in the dark for 12 hours before the start of the test. The concentrations are expressed in % of active ingredient relative to the volume of silicone on the paper (as the acetone is volatile).
In order to evaluate the mortality and the KD effect, 25 Ae. aegypti females which are not gorged and are from 2 to 5 days old are introduced into the exposure tube and are left in contact for one hour at 27° C.±2 and 80%±10 humidity. The number of mosquitoes which have fallen to the bottom of the tube is noted every 10 minutes. After 60 minutes, the mosquitoes are transferred into the observation tube, with sugared juice and placed in an incubator at 27° C.±2 and 80% ±10 humidity. The mortality is noted at 24 hours. The time at which 50% of the females are knocked-down (KDT50) as well as its confidence interval are determined using a log-probit analysis (7). Four tubes are tested per solution and each test is repeated three times (triple test method).
The tarsal contact tests were implemented using filter paper (standard qualitative filter paper ref 1002 917 or else Whatman N° 1) impregnated with technical quality products according to the recommendations of the World Health Organization (WHO, 6). The filter papers were treated using solutions of insecticide and/or insect repellent diluted in acetone with silicone oil as support. The impregnation of the paper was carried out with 2 ml of the solutions to be tested, then the paper was dried for 12 h. The mortality and the KD effect resulting from the tarsal contacts with treated filter paper were measured using the adult mosquito test tubes of the WHO. The concentrations were expressed in weight of active ingredient relative to the surface of treated filter paper surface. Batches of 25 Ae. aegypti females which have not fed on blood, from 2 to 5 days old, were introduced into holding tubes and kept for 1 h (adaptation time) at 27±2° C. and 80±10% humidity. The mosquitoes were then transferred into the exposure tube and placed under dimmed light for 1 h. For the purpose of comparison with pyrethroids, which are rapid action insecticides, the number of mosquitoes knocked down at the bottom of the tubes was counted at regular intervals of 10 min. The time at which 50% of the mosquitoes are knocked down (KDT50) and its confidence interval at 95% were then determined using the log-probit method (7). The mortality was recorded after 24 hours of exposure. Each concentration was tested four times and each test was repeated three times with different groups of insects in order to consider inter-batch variability. […]

The subject of test [4] is Aedes aegypti females, a strain resistant to pyrethroids (homozygous for the kdr gene). The test is described as follows: Irritability test (time for first take-off in cone on impregnated paper), strain resistant to pyrethroids. The note with it: 5.1 mg/m^2.
Source text: as §1, with “humidity. […]” for “humidity.”
as §2
Ae. aegypti females which have not fed on blood, from 2 to 5 days old, were introduced individually into plastic cones applied to treated filter papers. […] The time at which 50% of the mosquitoes have left the treated surface (median first take-off time, FT50) and its confidence interval at 95% were then determined using the log-probit method. […]

The mark [5] stands for this setting: sensitive strain, impregnated paper.

The mortality is the percentage killed. Read a low mortality as a weak lethal effect. For `CCN(CC)C(=O)c1cccc(C)c1` [DEET, N,N-diethyl-meta-toluamide], the “Irritability FT50” value in test [1] (364 mg/m^2 on impregnated paper) is 24.2 s. Also, the mortality at 364 mg/m2 in test [2] (364 mg/m^2, 1 h contact, read after 24 h, resistant strain) was found to be 0%; in test [3] (Aedes aegypti, 364 mg/m^2, 1 h contact, read after 24 h, sensitive strain) it was 0%. Further, in test [3] (DEET alone, 364 mg/m^2), the “insecticide effect (in words)” value is recorded as “does not itself have any insecticide effect”.

Regarding `CNC(=O)Oc1ccccc1OC(C)C` [Propoxur, 2-isopropyloxyphenolmethylcarbamate], in test [1] (7.28 mg/m^2 on impregnated paper), the “Irritability FT50” value turned out to be 133.9 s. Further, in test [2], the mortality at 3.64 mg/m2 stood at 34.5%. Also, the mortality at 7.28 mg/m2 in test [3] (Aedes aegypti) was 34%. Further, in test [3] (setting [5]), the “lethal concentration 30 (LC30)” value worked out at 7.28 mg/m^2.

In the case of `CC1(C)[C@H](C(=O)O[C@H](C#N)c2cccc(Oc3ccccc3)c2)[C@@H]1C=C(Br)Br` [deltamethrin], the “Irritability FT50” value is given as 34.98 s in test [4], 23.9 s in test [1] (0.728 mg/m^2 (LC30)) and 16.9 s in test [1] (5.1 mg/m^2 (LC100)). Besides, the mortality at 5.1 mg/m2 in test [2] (5.1 mg/m^2, 1 h contact, read after 24 h, resistant strain) amounted to 8%; in test [3] (Aedes aegypti, 5.1 mg/m^2, 1 h contact, read after 24 h, sensitive strain) it was 100%. The same compound gave a mortality at 0.728 mg/m2 in test [3] (Aedes aegypti, 0.728 mg/m^2, 1 h contact, read after 24 h, sensitive strain) of 34%. Also, the LC100 in test [3] (setting [5]) turned out to be 5.1 mg/m^2. In addition, the “lethal concentration 30 (LC30)” value in test [3] (setting [5]) amounted to 0.728 mg/m^2.
